In patent US12667568B2, “Compositions and methods for the treatment and diagnosis of cancer” (The General Hospital Corporation, priority 2020, dated 2026):

Tests used:
[1] = test system: HST578, MBAMD231, HCC1937, HCC1954 cancer cells; experiment: Cell survival assay, TRDMT1i alone (Example 19); type: cell-based; conditions: HCC1954, HRD, high SYCP2
Protocol: FIGS. 14A-14C show TRDMT1i alone reduce cancer cell survival in a dose-dependent manner. (FIG. 14A) Survival rate of HR proficient (HR+) HST578 cancer cells with and without siBRCA1 and/or TRDMT1i YW-1842 at indicated dose. The survival rate of these cells was analyzed (n=3, Mean±SD). (FIG. 14B) Survival rate of MBAMD231 (HR+) and HCC1937 (HRD) cells. The survival rate of these cells was analyzed (n=3, Mean±SD). (FIG. 14C) Cell survival rate in different cancer cell lines via colony-forming assay with the treatment of Imatinib at indicated dose (n=3, mean+/−S.D.). Cell lines are listed in order with the expression level from SYCP2high to SYCP2low.
Cells were seeded in each 6-cm dish and cultured as described above. They were treated with drugs with indicated dose in medium after seeding. After 7-10 days, colonies were fixed and stained with 0.3% crystal violet in methanol, and the number of colonies was counted manually.

[2] = test system: MD-MBA-231 xenograft tumors; experiment: MD-MBA-231 xenograft with PARPi; type: in vivo, BALB/c nude mice
Protocol: FIGS. 9A-9G show SYCP2 is required for efficient homologous recombination. (FIG. 9A) Cell survival rate of HeLa and MDAMB231 via colony forming assay with the treatment of […], 4 μm, 6 μM, 8 μM, 16 μM of Olaparib (n=3, mean+/−S.D.). Western blot of SYCP2 overexpression in HeLa and MDA-MB-231 is shown in the left. (FIG. 9B) Cell survival rate of HeLa via colony forming assay with the treatment of 1 μM, 2 μm, 3 μM of Olaparib (n=3, mean+/−S.D.). Western blot of SYCP2 knockdown in Hela is shown in the left. (FIG. 9C) Scheme of Xenograft design using intraperitoneal injection of MBA-MD-231 into successful developed mouse model with virus-associated SYCP2 knockdown and control groups is shown in the left. PARPi was injected every 2 days after day 7. The graph is shown the recorded tumor size of each tested group with PARPi treatment or saline at each treatment day. (FIG. 9D). Numbers of SYCP2 IR induced foci (IRIF) colocalizing with γH2AX in MDAMB231 and HeLa cells. Cells were fixed and counted for foci numbers after 2 Gy IR followed up indicated recovery time (t=0 hr, 12 hr, 24 hr, and 48 hr) (n=30, mean+/−S.D). (FIG. 9E). […] Fold increase of mean intensity at sites of irradiation compared to mean intensity of nucleus expression is quantified (n=5, mean+/−SD). […] Numbers of RAD51 IRIF in siCtrl and siSYCP2 treated MDAMB231 and U2OS cells after 2 Gy IR and 1 hour recovery were counted (n=20, +/SD). […]

[3] = test system: ZR-75-30, MCF7, HCC-1954, HCC-1937, MDA-MB-468 and MDA-MB-231; experiment: Colony formation assay with Olaparib in six breast cancer cell lines; type: cell-based
Protocol: FIGS. 10A-10E show SYCP2 promotes RAD51 localization to DSBs independently of BRCA1. (FIG. 10A) The schematic mechanism of HR in the absence of BRCA1/2 for RAD51 loading with the help of SYCP2. RAD51 IRIF in BRCA1 mutant breast cancer cell lines after 2 Gy IR and 1 hour recovery with or without siSYCP2. Numbers of RAD51 foci per cell in siCtrl and siSYCP2 were quantified (n=20). The frameshift mutation of BRCA1 in cell line HCC1954 and HCC1937 is listed in the right. (FIG. 10B) The frequency of BRCA1 and SYCP2 IRIF colocalizing with γ-H2AX in U2OS cells after 2 Gy IR and recovery of 1 hour. Western blot of BRCA1 and SYCP2 knockdown and RAD51 expression level was shown in the left. (FIG. 10C) Comparison of SYCP2 RNA expression (CCLE database) in BRCA1/2 mutant and wildtype breast cancer cell lines. The analysis is normalized to Fragments Per Kilobase Million (FPKM). (FIG. 10D) Plot of correlation between SYCP2 expression and IC50 of Olaparib in groups of BRCA WT vs. mutant cells (left), high BRCA1 vs. low BRCA1 (right). p values and r values were determined by using Pearson correlated analysis. […]
Approximately 400 cells were replanted on 6-cm dishes 48 h after siRNA transfection. […] Colonies were stained with 0.3% crystal violet/methanol and counted 9 days after treatments. Each experiment was performed at least 3 times and the standard errors were calculated and indicated in the graphs. […]

[4] = test system: SKOV3 subcutaneous xenograft tumors; experiment: SKOV3 xenograft with Cisplatin; type: in vivo, BALB/c nude mice; conditions: Cisplatin 5 mg/kg into tumor twice per week for 3 weeks, Lv-shTRDMT1 versus Lv-NC
Protocol: FIGS. 5A-5E show reduced TRDMT1 expression renders Cisplatin sensitization in vivo. (FIG. 5A) Lv-shTRDMT1 or Lv-NC transfected SKOV3 cells were subcutaneously injected into BALB/c nude mice, a week after injection, Cisplatin (5 mg/kg) or saline was injected into the center of the xenograft tumors twice per week for 3 consecutive weeks. (FIG. 5B) Representative images of tumors in xenografts transfected with LV-shTRDMT1/LV-NC with saline or Cisplatin treatment. (FIG. 5C) Tumor size of SKOV3 subcutaneous xenograft tumors (n=6, Mean±SD). (FIG. 5D) WB for TRDMT1 in tumor tissues collected from mice in each group (Tissues from six tumors in the same group were mixed into one sample). (FIG. 5E) IHC of TRDMT1 and KI-67 expression in ovarian cancer tissues of patients who were platinum-sensitive (PFS>6) and —resistant (PFS<6) Staining was assessed and scored on a scale of 0 (<5% staining) to 4 (>75% staining) in G. Quantification of IHC staining (n=38, PFS>6, n=24; PFS<6, n=14) was shown. […]
When mice developed palpable tumors (about a week after injection), cDDP (5 mg/kg) or saline were then injected into the center of the xenograft tumors twice per week for 3 consecutive weeks. […] PFS was calculated from the time of surgery to the time of progression or recurrence. […]

breast tumors = experiment: Sacituzumab Govitecan (IMMU-132) clinical trial, outcome by SYCP2 IHC; type: in vivo; conditions: 16 patients
Source text: FIGS. 13A-13D show high SYCP2 expression associates with poor prognosis and drug resistance in patients. (FIG. 13A). Summarization of subtypes of breast cancer patients in a Sacituzumab Govitecan (IMMU-132) clinical trial group. Patients were divided to high SYCP2 group and low SYCP2 group by IHC of SYCP2. IHC staining of SYCP2 expression in patient tumor tissues from the IMMU-132 clinical trial group. Representative images were shown. Cutoff value is median. Numbers of patients' response as Partial Response (PR) or Stable Disease (SD) in low SYCP2 group and high SYCP2 group in IMMU clinical trial are shown. (FIG. 13B) Kaplan-Meier curves of patients' overall survival and progression free survival in FIG. 13A. (FIG. 13C) Overall survival curves of 1095 patients from TCGA. Cutoff value is median. R value and p value were calculated by COX survival analysis. […]
The collected tumor specimens and adjacent normal tissue samples were fixed in 4% parafoiinaldehyde, stored in PBS. After sucrose infiltration, samples were filled with OTC and ready for cryosection. […] After deparaffinization and rehydration, sections were blocked and incubated with antibody against SYCP2 (PAS-67554, 1:20), Ki-67 (sc-23900, Santa Cruz, 1:200), and then detected using the Dako Envision two-step method of immunohistochemistry (Carpinteria, CA, USA). […] All IHC staining was scored independently by 2 pathologists. […]

`O=C(c1cc(Cc2n[nH]c(=O)c3ccccc23)ccc1F)N1CCN(C(=O)C2CC2)CC1` [Olaparib] was tested, and the “response of HCC1954 to PARPi” value [1] was “relatively resistant”, the “tumor growth, control tumors” value ([2]; siControl tumors, intraperitoneal, every 2 days after day 7, 23 days) was “reduced the growth of control tumors” and the “tumor growth, SYCP2 knockout tumors” value ([2]; siSYCP2 tumors versus control tumors) was “reduced the growth of SYCP2 knockout tumors more than control tumors”. The “PARPi sensitivity, BRCA1 mutant versus non-mutant” value ([3]; among four cell lines expressing high levels of SYCP2) was “more sensitive” and the “PARPi sensitivity, low versus high SYCP2” value ([3]; among four cell lines without BRCA mutations) was “much more sensitive”.

`N.N.[Cl][Pt][Cl]` [cisplatin] was tested, and the “xenograft tumor size, Lv-shTRDMT1 tumors” value [4] was “grew statistically smaller”.

In the case of Sacituzumab Govitecan, the “response rate in patients with SYCP2high tumors” value (breast tumors; SYCP2high versus SYCP2low by IHC) is reported as “reduced rate of partial response (PR) but an increased rate of stable disease (SD)” and the “survival in patients with high SYCP2 expression” value (breast tumors; high SYCP2 expression) is reported as “shorter overall survival and progression-free survival”.
